Measurements reported in PubChem BioAssay (NCI).
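In this assay, cells in 96-well plates receive the compound at five concentrations for 48 hours. Endpoints are linearly interpolated between the surrounding concentrations. At the TGI there is no net growth.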

Tests used:
Assay in all cases: NCI anticancer screen, dose series, 48 h
[1] = test system: SK-OV-3 ovarian
[2] = test system: UO-31 renal
[3] = test system: NCI-H226 lung
[4] = test system: A549 NSCLC
[5] = test system: RXF 393 renal
[6] = test system: K-562 leukemia
[7] = test system: SNB-75 CNS
[8] = test system: CCRF-CEM leukemia
[9] = test system: SF-268 CNS
[10] = test system: HL-60(TB) leukemia
[11] = test system: U251 CNS
[12] = test system: SF-539 CNS
[13] = test system: SNB-19 CNS
[14] = test system: MALME-3M melanoma
[15] = test system: KM12 colon
[16] = test system: COLO 205 colon
[17] = test system: EKVX NSCLC
[18] = test system: SW-620 colon
[19] = test system: HT29 colon
[20] = test system: UACC-62 melanoma
[21] = test system: OVCAR-3 ovarian
[22] = test system: SR leukemia
[23] = test system: NCI-H460 lung
[24] = test system: KM20L2 colon
[25] = test system: 786-0 renal
[26] = test system: OVCAR-4 ovarian
[27] = test system: CAKI-1 renal
[28] = test system: UACC-257 melanoma
[29] = test system: HOP-18 NSCLC
[30] = test system: SF-295 CNS
[31] = test system: HOP-92 NSCLC
[32] = test system: IGROV1 ovarian
[33] = test system: M19-MEL melanoma
[34] = test system: LXFL 529 NSCLC
[35] = test system: SK-MEL-5 melanoma
[36] = test system: HCT-15 colon
[37] = test system: HOP-62 NSCLC
[38] = test system: RPMI-8226 leukemia
[39] = test system: OVCAR-8 ovarian
[40] = test system: NCI-H522 lung
[41] = test system: DLD-1 colon
[42] = test system: SN12C renal
[43] = test system: SK-MEL-2 melanoma
[44] = test system: HCT-116 colon
[45] = test system: MOLT-4 leukemia
[46] = test system: TK-10 renal
[47] = test system: DMS 114 small cell lung
[48] = test system: SK-MEL-28 melanoma
[49] = test system: ACHN renal
[50] = test system: NCI-H23 lung
[51] = test system: M14 melanoma

Measured: TGI

[N-]=[N+]=Nc1ccccc1-[n+]1noc([O-])c1Br
> 100 µM: all assays above
